# Legend:
# Assay in all cases: Test D pre-/postemergence herbicide test
# field violet = type: in vivo, Viola arvensis; conditions: for Plant response rating: Field Violet, scale 0 to 100; for Plant response rating, Field Violet: scale 0 to 100 (0 no effect, 100 complete control)
# Source text: (§1) Seeds of plant species selected from bluegrass (annual bluegrass, Poa annua), blackgrass (Alopecurus myosuroides), canarygrass (littleseed canarygrass, Phalaris minor), chickweed (common chickweed, Stellaria media), galium (catchweed bedstraw, Galium aparine), bromegrass, downy (downy bromegrass, Bromus tectorum), field poppy (Papaver rhoeas), field violet (Viola arvensis), foxtail, green (green foxtail, Setaria viridis), deadnettle (henbit deadnettle, Lamium amplexicaule), ryegrass, Italian (Italian ryegrass, Lolium multiflorum), kochia (Kochia scoparia), lambsquarters (Chenopodium album), oilseed rape (Brassica napus), pigweed (Amaranthus retroflexus), chamomile (scentless chamomile, Matricaria inodora), Russian thistle (Salsola kali), speedwell (bird's-eye speedwell, Veronica persica), barley, spring (spring barley, Hordeum vulgare), wheat, spring (spring wheat, Triticum aestivum), buckwheat, wild (wild buckwheat, Polygonum convolvulus), mustard, wild (wild mustard, Sinapis arvensis), oat, wild (wild oat, Avena fatua), radish, wild (wild radish, Raphanus raphanistrum), […]), barley, winter (winter barley, Hordeum vulgare), and wheat, winter (winter wheat, Triticum aestivum) were planted into a silt loam soil and treated preemergence with test chemicals formulated in a non-phytotoxic solvent mixture which included a surfactant. At the same time, these species were planted in pots containing Redi-Earth® planting medium (Scotts Company, 14111 Scottslawn Road, Marysville, Ohio 43041) comprising spaghnum peat moss, vermiculite, wetting agent and starter nutrients and treated with postemergence applications of the test chemicals formulated in the same manner. Plants ranged in height from 2 to 18 cm (1- to 4-leaf stage). Treated plants and controls were maintained in a controlled growth environment for 7 to 21 days after which time all species were compared to controls and visually evaluated. Plant response ratings, summarized in Table D, are based on a scale of 0 to 100 where 0 is no effect and 100 is complete control. A dash (-) response means no test result.
# foxtail, green = type: in vivo, Setaria viridis; conditions: for Plant response rating: Foxtail, Green, scale 0 to 100; for Plant response rating, Foxtail, Green: scale 0 to 100 (0 no effect, 100 complete control)
# Source text: as §1
# chamomile = type: in vivo, Matricaria inodora; conditions: for Plant response rating: Chamomile, scale 0 to 100; for Plant response rating, Chamomile: scale 0 to 100 (0 no effect, 100 complete control)
# Source text: as §1
# lambsquarters = type: in vivo, Chenopodium album; conditions: for Plant response rating: Lambsquarters, scale 0 to 100; for Plant response rating, Lambsquarters: scale 0 to 100 (0 no effect, 100 complete control)
# Source text: as §1
# bromegrass, downy = type: in vivo, Bromus tectorum; conditions: for Plant response rating: Bromegrass, Downy, scale 0 to 100; for Plant response rating, Bromegrass, Downy: scale 0 to 100 (0 no effect, 100 complete control)
# Source text: as §1
# blackgrass = type: in vivo, Alopecurus myosuroides; conditions: for Plant response rating: Blackgrass, scale 0 to 100; for Plant response rating, Blackgrass: scale 0 to 100 (0 no effect, 100 complete control)
# Source text: as §1
# galium = type: in vivo, Galium aparine; conditions: for Plant response rating: Galium, scale 0 to 100; for Plant response rating, Galium: scale 0 to 100 (0 no effect, 100 complete control)
# Source text: as §1
smiles,measurement,setting,value
O=C1NCC(c2ccc(F)c(F)c2)C1C(=O)Nc1cccc(F)c1 (racemic) [Compound 12],Plant response rating,"field violet; Postemergence, 16 g ai/ha",0
same,Plant response rating,"field violet; Postemergence, 31 g ai/ha",0
same,Plant response rating,"field violet; Postemergence, 62 g ai/ha",30
same,Plant response rating,"field violet; Postemergence, 125 g ai/ha",35
same,Plant response rating,"field violet; Postemergence, 250 g ai/ha",40
same,"Plant response rating, Field Violet","field violet; Preemergence, 31 g ai/ha",0
same,"Plant response rating, Field Violet","field violet; Preemergence, 62 g ai/ha",0
same,"Plant response rating, Field Violet","field violet; Preemergence, 16 g ai/ha",0
same,Plant response rating,"field violet; Preemergence, 125 g ai/ha",0
same,Plant response rating,"field violet; Preemergence, 250 g ai/ha",0
same,Plant response rating,"foxtail, green; Postemergence, 16 g ai/ha",0
same,Plant response rating,"foxtail, green; Postemergence, 31 g ai/ha",0
same,Plant response rating,"foxtail, green; Postemergence, 62 g ai/ha",10
same,Plant response rating,"foxtail, green; Postemergence, 125 g ai/ha",20
same,Plant response rating,"foxtail, green; Postemergence, 250 g ai/ha",25
same,"Plant response rating, Foxtail, Green","foxtail, green; Preemergence, 31 g ai/ha",0
same,"Plant response rating, Foxtail, Green","foxtail, green; Preemergence, 62 g ai/ha",0
same,"Plant response rating, Foxtail, Green","foxtail, green; Preemergence, 16 g ai/ha",0
same,Plant response rating,"foxtail, green; Preemergence, 125 g ai/ha",0
same,Plant response rating,"foxtail, green; Preemergence, 250 g ai/ha",0
same,Plant response rating,"chamomile; Postemergence, 16 g ai/ha",0
same,Plant response rating,"chamomile; Postemergence, 31 g ai/ha",0
same,Plant response rating,"chamomile; Postemergence, 62 g ai/ha",0
same,Plant response rating,"chamomile; Postemergence, 125 g ai/ha",0
same,Plant response rating,"chamomile; Postemergence, 250 g ai/ha",0
same,"Plant response rating, Chamomile","chamomile; Preemergence, 31 g ai/ha",0
same,"Plant response rating, Chamomile","chamomile; Preemergence, 62 g ai/ha",0
same,"Plant response rating, Chamomile","chamomile; Preemergence, 16 g ai/ha",0
same,Plant response rating,"chamomile; Preemergence, 125 g ai/ha",0
same,Plant response rating,"chamomile; Preemergence, 250 g ai/ha",20
same,Plant response rating,"lambsquarters; Postemergence, 16 g ai/ha",0
same,Plant response rating,"lambsquarters; Postemergence, 31 g ai/ha",0
same,Plant response rating,"lambsquarters; Postemergence, 62 g ai/ha",10
same,Plant response rating,"lambsquarters; Postemergence, 125 g ai/ha",10
same,Plant response rating,"lambsquarters; Postemergence, 250 g ai/ha",25
same,"Plant response rating, Lambsquarters","lambsquarters; Preemergence, 31 g ai/ha",0
same,"Plant response rating, Lambsquarters","lambsquarters; Preemergence, 62 g ai/ha",0
same,"Plant response rating, Lambsquarters","lambsquarters; Preemergence, 16 g ai/ha",0
same,Plant response rating,"lambsquarters; Preemergence, 125 g ai/ha",30
same,Plant response rating,"lambsquarters; Preemergence, 250 g ai/ha",30
same,Plant response rating,"bromegrass, downy; Postemergence, 16 g ai/ha",0
same,Plant response rating,"bromegrass, downy; Postemergence, 31 g ai/ha",0
same,Plant response rating,"bromegrass, downy; Postemergence, 62 g ai/ha",0
same,Plant response rating,"bromegrass, downy; Postemergence, 125 g ai/ha",0
same,Plant response rating,"bromegrass, downy; Postemergence, 250 g ai/ha",5
same,"Plant response rating, Bromegrass, Downy","bromegrass, downy; Preemergence, 31 g ai/ha",0
same,"Plant response rating, Bromegrass, Downy","bromegrass, downy; Preemergence, 62 g ai/ha",0
same,"Plant response rating, Bromegrass, Downy","bromegrass, downy; Preemergence, 16 g ai/ha",0
same,Plant response rating,"bromegrass, downy; Preemergence, 125 g ai/ha",0
same,Plant response rating,"bromegrass, downy; Preemergence, 250 g ai/ha",10
same,Plant response rating,"blackgrass; Postemergence, 16 g ai/ha",5
same,Plant response rating,"blackgrass; Postemergence, 31 g ai/ha",10
same,Plant response rating,"blackgrass; Postemergence, 62 g ai/ha",10
same,Plant response rating,"blackgrass; Postemergence, 125 g ai/ha",15
same,Plant response rating,"blackgrass; Postemergence, 250 g ai/ha",20
same,"Plant response rating, Blackgrass","blackgrass; Preemergence, 31 g ai/ha",0
same,"Plant response rating, Blackgrass","blackgrass; Preemergence, 62 g ai/ha",0
same,"Plant response rating, Blackgrass","blackgrass; Preemergence, 16 g ai/ha",0
same,Plant response rating,"blackgrass; Preemergence, 125 g ai/ha",0
same,Plant response rating,"blackgrass; Preemergence, 250 g ai/ha",0
same,Plant response rating,"galium; Postemergence, 16 g ai/ha",0
same,Plant response rating,"galium; Postemergence, 31 g ai/ha",0
same,Plant response rating,"galium; Postemergence, 62 g ai/ha",15
same,Plant response rating,"galium; Postemergence, 125 g ai/ha",20
same,Plant response rating,"galium; Postemergence, 250 g ai/ha",25
same,"Plant response rating, Galium","galium; Preemergence, 31 g ai/ha",0
same,"Plant response rating, Galium","galium; Preemergence, 62 g ai/ha",0
same,"Plant response rating, Galium","galium; Preemergence, 16 g ai/ha",0
same,Plant response rating,"galium; Preemergence, 125 g ai/ha",0
same,Plant response rating,"galium; Preemergence, 250 g ai/ha",10
O=C1NCC(c2cc(F)c(F)c(F)c2)C1C(=O)Nc1ccccc1C(F)(F)F (racemic) [Compound 33],Plant response rating,"field violet; Postemergence, 16 g ai/ha",0
same,Plant response rating,"field violet; Postemergence, 31 g ai/ha",0
same,Plant response rating,"field violet; Postemergence, 62 g ai/ha",0
same,Plant response rating,"field violet; Postemergence, 125 g ai/ha",0
same,Plant response rating,"field violet; Postemergence, 250 g ai/ha",0
same,Plant response rating,"foxtail, green; Postemergence, 16 g ai/ha",0
same,Plant response rating,"foxtail, green; Postemergence, 31 g ai/ha",0
same,Plant response rating,"foxtail, green; Postemergence, 62 g ai/ha",0
same,Plant response rating,"foxtail, green; Postemergence, 125 g ai/ha",0
same,Plant response rating,"foxtail, green; Postemergence, 250 g ai/ha",0
same,Plant response rating,"chamomile; Postemergence, 16 g ai/ha",0
same,Plant response rating,"chamomile; Postemergence, 31 g ai/ha",0
same,Plant response rating,"chamomile; Postemergence, 62 g ai/ha",0
same,Plant response rating,"chamomile; Postemergence, 125 g ai/ha",0
same,Plant response rating,"chamomile; Postemergence, 250 g ai/ha",0
same,Plant response rating,"lambsquarters; Postemergence, 16 g ai/ha",0
same,Plant response rating,"lambsquarters; Postemergence, 31 g ai/ha",0
same,Plant response rating,"lambsquarters; Postemergence, 62 g ai/ha",0
same,Plant response rating,"lambsquarters; Postemergence, 125 g ai/ha",0
same,Plant response rating,"lambsquarters; Postemergence, 250 g ai/ha",20
same,Plant response rating,"bromegrass, downy; Postemergence, 16 g ai/ha",0
same,Plant response rating,"bromegrass, downy; Postemergence, 31 g ai/ha",0
same,Plant response rating,"bromegrass, downy; Postemergence, 62 g ai/ha",0
same,Plant response rating,"bromegrass, downy; Postemergence, 125 g ai/ha",0
same,Plant response rating,"bromegrass, downy; Postemergence, 250 g ai/ha",0
same,Plant response rating,"blackgrass; Postemergence, 16 g ai/ha",0
same,Plant response rating,"blackgrass; Postemergence, 31 g ai/ha",0
same,Plant response rating,"blackgrass; Postemergence, 62 g ai/ha",0
same,Plant response rating,"blackgrass; Postemergence, 125 g ai/ha",0
same,Plant response rating,"blackgrass; Postemergence, 250 g ai/ha",0
same,Plant response rating,"galium; Postemergence, 16 g ai/ha",0
same,Plant response rating,"galium; Postemergence, 31 g ai/ha",0
same,Plant response rating,"galium; Postemergence, 62 g ai/ha",0
same,Plant response rating,"galium; Postemergence, 125 g ai/ha",0
same,Plant response rating,"galium; Postemergence, 250 g ai/ha",0
O=C1NCC(c2cccc(C(F)(F)F)c2)C1C(=O)Nc1cccc(F)c1F (stereo not drawn) [Compound 241],"Plant response rating, Field Violet","field violet; Preemergence, 31 g ai/ha",15
same,"Plant response rating, Field Violet","field violet; Preemergence, 62 g ai/ha",15
same,"Plant response rating, Field Violet","field violet; Preemergence, 125 g ai/ha",20
same,Plant response rating,"field violet; Preemergence, 250 g ai/ha",30
same,"Plant response rating, Foxtail, Green","foxtail, green; Preemergence, 31 g ai/ha",35
same,"Plant response rating, Foxtail, Green","foxtail, green; Preemergence, 62 g ai/ha",90
same,"Plant response rating, Foxtail, Green","foxtail, green; Preemergence, 125 g ai/ha",90
same,Plant response rating,"foxtail, green; Preemergence, 250 g ai/ha",90
same,"Plant response rating, Lambsquarters","lambsquarters; Preemergence, 31 g ai/ha",85
same,"Plant response rating, Lambsquarters","lambsquarters; Preemergence, 62 g ai/ha",90
same,"Plant response rating, Lambsquarters","lambsquarters; Preemergence, 125 g ai/ha",90
same,Plant response rating,"lambsquarters; Preemergence, 250 g ai/ha",90
same,"Plant response rating, Bromegrass, Downy","bromegrass, downy; Preemergence, 31 g ai/ha",0
same,"Plant response rating, Bromegrass, Downy","bromegrass, downy; Preemergence, 62 g ai/ha",15
same,"Plant response rating, Bromegrass, Downy","bromegrass, downy; Preemergence, 125 g ai/ha",15
same,Plant response rating,"bromegrass, downy; Preemergence, 250 g ai/ha",60
same,"Plant response rating, Blackgrass","blackgrass; Preemergence, 31 g ai/ha",20
same,"Plant response rating, Blackgrass","blackgrass; Preemergence, 62 g ai/ha",55
same,"Plant response rating, Blackgrass","blackgrass; Preemergence, 125 g ai/ha",50
same,Plant response rating,"blackgrass; Preemergence, 250 g ai/ha",75
same,"Plant response rating, Galium","galium; Preemergence, 31 g ai/ha",20
same,"Plant response rating, Galium","galium; Preemergence, 62 g ai/ha",25
same,"Plant response rating, Galium","galium; Preemergence, 125 g ai/ha",35
same,Plant response rating,"galium; Preemergence, 250 g ai/ha",80
